Here are results for two compounds from US5476953A, “Biologically active amides containing a bicyclo moiety” (Cornell Research Foundation, Inc., priority 1994, dated 1995).

In general, pIC50 refers to −log10 of the IC50, conventionally taken in molar units. A high value points to a small IC50.

pIC50: −log10 of the molar value. “And” between values parts separate entries of the source, which are not always exact repeats. Identical values can stand only once.

Experiment [1] concerns M109 mouse lung tumor, sc. The experiment can be described thus: In vivo antitumor activity against sc implanted M109 mouse lung tumor. To be noted: for MST % T/C: active ≥125%; for T-C: time to 1 g tumor, activity criterion approximately 4 days. As to the method: (§1) For evaluation of antitumor activity versus M109 mouse lung tumors, experiments were begun by implanting 0.5 ml of a 2.0% brei ip or 0.1 ml subcutaneously (sc) in CDF1 mice as described in Rose, W. C., Cancer Treat. Rep. 65: 299-312 (1981). Icadamide B was administered either intraperitoneally (ip), intravenously (iv) or subcutaneously (sc) by alzet pump according to dosage amounts and schedule set forth in Table IV below. Results are expressed as % T/C, i.e., percentage of median survival time of treated (T) versus control (C) groups. A % T/C of ≥125% was considered an active result. Results are also expressed in terms of tumor growth inhibition, particularly the median times for tumors in treated (T) mice to reach a 1 g size minus the median times for control (C) mice to reach a 1 g size, denoted T-C. Tumor weights were interchangeable with tumor size on the basis of 1 mm^3 =1 mg. The activity criterion for T-C is approximately equal to 4 days. Depending on the tumor volume doubling time for M109 tumors in control mice, this amount of delay in tumor growth is consistent with about one log of cell kill.

The test system of experiment [2] is HCT116 human colon carcinoma cells. The experiment can be described thus: In vitro cytotoxicity, crystal violet assay, HCT116 human colon carcinoma. The format is cell-based. The note with it: HCT-116, inhibition of cell proliferation to 50% of untreated control, 72 hours. As to the method:
Methanolic extract, obtained on thawing about 1 g frozen sponge by immersion in 20 ml methanol, was assessed for in vitro cytotoxicity in HCT116 human colon carcinoma cells using the crystal violet assay as described in Catino, J. J., et al, Cancer Chemothr. Pharmacol. 15: 240-243, 1985. Particularly, cells were plated at 4000 cells/well in 96 well microtiter plates and 24 hours later samples were added and serial diluted. The cells were incubated at 37° C. for 72 hours. The media was then removed and the cells fixed for 10 minutes with 3.7% formaldehyde in 1 X phosphate buffered saline. The fixing solution was removed and the cells stained with a 0.0075% crystal violet solution for 15 minutes. The cells were then allowed to dry. Rough IC50 values (IC50 being the drug concentration required to inhibit cell proliferation to 50% of that of untreated control cells), expressed as a dilution factor from a 2 mg/ml starting concentration, were determined by visual examination, compared to untreated control wells.
Cytotoxicity was assessed for pure Icadamide A and for pure Icadamide B in an HCT116 human colon carcinoma cell line by the crystal violet assay described previously. […] The IC50 is the drug concentration required to inhibit cell proliferation to 50% of that of untreated control cells.

The subject of experiment [3] is asbestos-induced pulmonary squamous cell carcinoma (ASB), ip. The experiment can be described thus: In vivo antitumor activity against ip implanted asbestos-induced pulmonary squamous cell carcinoma (ASB). The arrangement: species or system mouse. As to the method: (§2) For evaluation of antitumor activity versus the asbestos-induced pulmonary squamous cell carcinoma (ASB), CDF1 mice were implanted either intraperitoneally (ip) or subcutaneously (sc) with 0.5 ml or 0.1 ml of a 2% brei, respectively. […] Results were evaluated on the same basis as described above for M109 mouse lung tumors except that the activity criterion for tumor growth inhibition was a T-C of ≥6 days.

The subject of experiment [4] is M109 mouse lung tumor, ip. The experiment in a line: In vivo antitumor activity against ip implanted M109 mouse lung tumor. The note with it: for MST % T/C: qd 1-5, ip, active ≥125%. As to the method:
as §1

For a further experiment, the system named is P388 mouse leukemia, ip. The experiment can be described thus: In vivo antitumor activity against ip implanted P388 mouse leukemia. As to the method:
For evaluation of antitumor activity against P388 mouse leukemia cells, 1 X 10^6 P 388 leukemia cells were implanted in the intraperitoneal (ip) cavity of (BALB/c X DBA/2)F1 (CDF1) or (C57BL/6 X DBA/2)F1 (BDF1) mice according to the procedure as described in Rose, W. C., et al, Cancer Res. 43: 1504-1510 (1983). Icadamide B was dissolved in DMSO and diluted with saline to the desired concentrations. Injection of Icadamide B was by the ip route beginning on the first day after tumor implantation and consecutively every day for five treatments (q1dX5:1). Increases in lifespan were reflected by the median survival time of treated (T) versus control (C) groups for which a % T/C was calculated. A % T/C of ≥125% was considered an active result.

Experiment [5] relates to asbestos-induced pulmonary squamous cell carcinoma (ASB), sc. The experiment in a line: In vivo antitumor activity against sc implanted asbestos-induced pulmonary squamous cell carcinoma (ASB). Set-up: species or system mouse. As to the method: as §2
The mark [6] stands for this setting: a) 0.020 mg/kg/inj, d. 1, 4 & 7, iv.
[7] abbreviates: b) 0.128 mg/kg/inj, d. 1, 3, 5, 7 & 9, iv.
[8] abbreviates: e) 0.032-0.0537 mg/kg daily, qd 4-10, subcutaneously implanted Alzet pump (scap).

Consider `C=C1CC(OC)(C(O)C(=O)NC2OCOC3C2OC(CC(O)/C=C/CCCCCCO)C(C)(C)C3OC)OC(C)C1C` (centres unmarked) [Icadamide B], for which the “MST % T/C” value in experiment [1] (setting [6]) is 135%; in experiment [1] (setting [7]), 97%; in experiment [1] (c) 0.016 mg/kg/inj, qd 4-8, iv), 119%; in experiment [1] (d) 0.013 mg/kg/inj, qd 4-8, ip), 109%; in experiment [1] (setting [8]), 102%; in experiment [3] (0.008 mg/kg/inj, qd 4-8, ip, active ≥125%), 121%. Further, the “MST % T/C” value was 163% in experiment [4] (a) 0.016 mg/kg/inj); 150% in experiment [4] (b) 0.008 mg/kg/inj); 181% and 143% in the experiment with P388 mouse leukemia, ip (0.016 mg/kg/inj, qd 1-5, ip; two separate experiments a) and b), active ≥125%); 129% in experiment [5] (0.032/0.128 mg/kg/inj, qd 4-8, iv, active ≥125%). Besides, the T-C is -0.3 days in experiment [1] (setting [6]); 0 days in experiment [1] (setting [7]); 0.3 days in experiment [1] (c) 0.016 mg/kg/inj, qd 4-8, iv); 2.5 days in experiment [1] (d) 0.013 mg/kg/inj, qd 4-8, ip); 3.3 days in experiment [1] (setting [8]); 3.0 days and 3 days in experiment [5] (0.032/0.128 mg/kg/inj, qd 4-8, iv, time to 1 g tumor, activity criterion ≥6 days). For the same compound, in experiment [1] (sc implanted M109), the “increase in lifespan (in words)” value is recorded as “marginal increases in lifespan”. Besides, the “tumor growth delay (in words)” value in experiment [1] (sc implanted M109) is “negligible tumor growth delays”. In addition, the pIC50 in experiment [2] was 9.77. Besides, the “activity (in words)” value in experiment [3] (ip implanted ASB) is “poor activity”; in experiment [4] (ip implanted M109), “good activity”; in the experiment with P388 mouse leukemia, ip (ip implanted P388), “good activity”. The “increase in lifespan” value is 63% and 50% in experiment [4] (maximally tolerated doses, ip); 43% and 81% in the experiment on P388 mouse leukemia, ip (maximally tolerated dose, ip, two separate experiments). Besides, the “distal site activity (in words)” value in experiment [5] (sc implanted ASB) is “little distal site activity”.

In experiment [2], `C=C1CC(OC)(C(O)C(=O)NC2OCOC3C2OC(CC(O)/C=C/C/C=C/C=C/C(=O)NC(CCCNC(=N)N)C(=O)O)C(C)(C)C3OC)OC(C)C1C` (centres unmarked) [Icadamide A] gave a negative logarithm of the IC50 (pIC50) of 7.20.
